These results are taken from paper PMC2827657 (Biochemistry, 2010).

What is called Kd is a measure of binding affinity in units of concentration.

Series [1] concerns the target NSMOA (Pseudomonas putida, UniProt O33471). The series is described as follows: Linkage relationships of ligand binding and redox equilibria of NSMOA. The arrangement: species or system Pseudomonas putida S12.
In series [2] the target is apo NSMOA (Pseudomonas sp, UniProt O50214). The series is described as follows: biochemical.
The conditions of series [3]: cited from earlier work.
For series [4], the target named is NSMOA (Pseudomonas sp, UniProt O50214). The series is described as follows: Stopped-flow fluorescence kinetics of oxidized FAD binding to NSMOA. The arrangement: species or system Pseudomonas putida S12. The settings on record: 280 μM NSMOA mixed with 50 μM FAD, 25°C, four-exponential fit.
Series [5] relates to P. putida S12. Conditions: growth of P. putida S12; cited from earlier work.
Setting [6] is: calculated from linkage relationships.

NSMOA (Pseudomonas sp, UniProt O50214), sequence (O50214 whole entry): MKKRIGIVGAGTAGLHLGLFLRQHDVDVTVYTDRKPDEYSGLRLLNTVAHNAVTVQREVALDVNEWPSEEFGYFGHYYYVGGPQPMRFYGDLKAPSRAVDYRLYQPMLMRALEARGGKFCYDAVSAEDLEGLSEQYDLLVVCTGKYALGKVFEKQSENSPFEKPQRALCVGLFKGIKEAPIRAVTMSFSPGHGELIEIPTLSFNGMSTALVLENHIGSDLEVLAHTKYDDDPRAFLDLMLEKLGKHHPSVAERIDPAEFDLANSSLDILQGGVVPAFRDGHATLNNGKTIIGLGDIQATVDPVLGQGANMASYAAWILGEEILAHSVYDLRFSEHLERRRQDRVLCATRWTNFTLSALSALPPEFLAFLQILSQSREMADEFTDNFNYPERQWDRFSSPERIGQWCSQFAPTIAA
apo NSMOA, sequence (O50214 whole entry): as above

For `c1ccccc1` [benzene, reference compound], in series [1] (benzene affinity for reduced-FAD complex of NSMOA relative to comparison state), the “positive cooperative interaction of benzene and reduced FAD binding (Kd1/Kd7)” value is listed as roughly 2 fold. Moreover, the “decrease in cooperativity of substrate-analog and reduced-FAD binding equilibria” value in series [1] (relative to oxidized FAD cooperativity) was 30 fold. Besides, binding in series [2] was characterised by a dissociation constant (Kd) of 4.2 ± 0.37 mM.
For the compound `Cc1cc2nc3c(=O)[nH]c(=O)nc-3n(C[C@H](O)[C@H](O)[C@H](O)COP(=O)(O)OP(=O)(O)OC[C@H]3O[C@@H](n4cnc5c(N)ncnc54)[C@H](O)[C@@H]3O)c2cc1C` [oxidized FAD, flavin adenine dinucleotide], the “Em1, solution potential of free FAD” value in series [3] was -212 mV. Also, in series [4], the “rate constant k1” value was found to be 265 s⁻¹, the “rate constant k2” value was determined as 120 s⁻¹, the “rate constant k3” value amounted to 21 s⁻¹ and the “rate constant k4” value came out at 0.34 s⁻¹. For the same compound, in series [1] (setting [6]), the “equilibrium midpoint potential of FAD bound to benzene-bound NSMOA” value is -142 mV and the “equilibrium midpoint potential of FAD bound to benzene-free NSMOA” value is listed as -97 mV.
As to `C=Cc1ccccc1` [styrene], the “styrene concentration at which growth is inhibited” value in series [5] is “greater than 300 μM”.
